Assay results taken from patent US5935966A, “Pyrimidine carboxylates and related compounds and methods for treating inflammatory conditions” (Signal Pharmaceuticals, Inc., priority 1996, dated 1999).

Key:
[1] = system: NFκB and AP-1; test: NFκB and AP-1 luciferase reporter assays in stable Jurkat T-cells (PMA/PHA stimulated); format: cell-based, human; details: Homo sapiens, average of NFκB and AP-1 assays, read-out: ICm (average of the measurements obtained from the NFκB and AP-1 assays)
Source text: Stable human Jurkat T-cells containing an NFκB binding site (from the MHC promoter) fused to a minimal SV-40 promoter driving luciferase expression were used in this experiment. Cells were split to 3×10^5 cells/mL every 2-3 days (cell concentration should not exceed 1×10^6 cells/mL to keep the cells proliferating in log phase). These cells were counted, resuspended in fresh medium containing 10% Serum-Plus at a density of 1×10^6 cells/mL and plated in 96 well round bottom plates (200 μ.LAMBDA. per well) 18 hours prior to starting the experiment.
Compounds of this invention, dissolved in dimethyl sulfoxide (3.3, 0.33 and 0.03 μg/mL), were then added to the 96 well plates containing the cells and the plates were incubated for 0.5 h at 37° C. Then 50 ng/mL of phorbol 12-myristate-13-acetate (PMA) and 1 μg/mL of phytohemagglutinin (PHA) were added to each well and the cells were incubated for an additional 5 h at 37° C. The plates were centrifuged at 2200 RPM for 3 minutes at room temperature and then the medium was removed. To each well was added 60 μL of cell lysis buffer and the plates were left at room temperature for 0.25 h. Then 40 μL of each cell extract was transferred to a black 96 well plate and 50 μL of luciferase substrate buffer was added. Luminescence was immediately measured using a Packard TopCount.
For AP-1, the assay was run as described above for NFκB except stable Jurkat T-cells were used that contained a collagenase promoter driving luciferase expression. In addition, the concentration of PMA used was 5 ng/mL.
The IC50 values reported in Table 3 are the average of the measurements obtained from the NFκB and AP-1 assays described above.

[2] = system: delayed-type hypersensitivity response to oxazolone; details: Morris et al. 1990; cited from earlier work
[3] = system: popliteal lymph node (graft vs. host); details: Morris et al. 1990; cited from earlier work

| Structure (SMILES) | IC50 [1] [nM] | further results |
| --- | --- | --- |
| CCOC(=O)c1cnc(N(C)N2C(=O)C=C(C)C2=O)nc1C1CC1 [Example 109, ETHYL 2-[N-(1'-AMINOCITRACONAMIDO-N-METHYL)]-4-CYCLOPROPYLPYRIMIDINE-5-CARBOXYLATE] | 200 |  |
| CCc1nc(N(C)N2C(=O)C=C(C)C2=O)ncc1CO [Example 111, 2-[N-(1'-AMINOCITRACONAMIDO)-N-METHYL]-4-ETHYL-5-(HYDROXYMETHYL)PYRIMIDINE] | 4900 |  |
| CCc1nc(N(C)N2C(=O)C=C(C)C2=O)ncc1COC [Example 112, 2-[N-(1'-AMINOCITRACONAMIDO)-N-METHYL]-4-ETHYL-5-(METHOXYMETHYL)PYRIMIDINE] | 600 |  |
| COCc1cnc(NN2C(=O)C=C(C)C2=O)nc1C(F)(F)F [Example 113, 2-[N-(1'-AMINOCITRACONAMIDO)]-5-(METHOXYMETHYL)-4-TRIFLUOROMETHYLPYRIMIDINE] | 1000 |  |
| CCOC(=O)OCc1cnc(NN2C(=O)C=C(C)C2=O)nc1C(F)(F)F [Example 114, 2-[N-(1'-AMINOCITRACONAMIDO)]-5-(ETHOXYMETHYLCARBONATE)-4-TRIFLUOROMETHYLPYRIMIDINE] | 1100 |  |
| CCOC(=O)c1cnc(-c2ccccc2)nc1NN1C(=O)C=C(C)C1=O [Example 115] | 30 |  |
| CCOC(=O)c1cnc(-c2ccccc2)nc1N(C)N1C(=O)C=C(C)C1=O [Example 116, ETHYL-4-[N-(1'-AMINOCITRACONAMIDO)-N-METHYL]-2-PHENYLPYRIMIDINE-5-CARBOXYLATE] | 1400 |  |
| CCOC(=O)c1cnc(-c2ccccc2)nc1N(C(C)=O)N1C(=O)C=C(C)C1=O [Example 117, ETHYL 4-[N-ACETYL-N-(1'-AMINOCITRACONAMIDO)]-2-PHENYLPYRIMIDINE-5-CARBOXYLATE] | 4000 |  |
| CCOC(=O)c1cnc(C)nc1NN1C(=O)C=C(C)C1=O [Example 118, ETHYL 4-[N-(1'-AMINOCITRACONAMIDO)]-2-METHYLPYRIMIDINE-5-CARBOXYLATE] | 17000 |  |
| CCOC(=O)c1cnc(Cc2ccccc2)nc1NN1C(=O)C=C(C)C1=O [Example 119, ETHYL 4-[N-(1'-AMINOCITRACONAMIDO)]-2-BENZYLPYRIMIDINE-5-CARBOXYLATE] | 7000 |  |
| CCOC(=O)c1cnc(-c2cccc([N+](=O)[O-])c2)nc1NN1C(=O)C=C(C)C1=O [Example 120, ETHYL 4-[N-(1'-AMINOCITRACONAMIDO)]-2-(3'-NITROPHENYL)-PYRIMIDINE-5-CARBOXYLATE] | 8000 |  |
| CCOC(=O)c1cnc(-c2ccc(C(F)(F)F)cc2)nc1NN1C(=O)C=C(C)C1=O [Example 121, ETHYL 4-[N-(1'-AMINOCITRACONAMIDO)]-2-(4'-TRIFLUOROMETHYLPHENYL)PYRIMIDINE-5-CARBOXYLATE] | 400 |  |
| CCOC(=O)c1cnc(-c2cccs2)nc1NN1C(=O)C=C(C)C1=O [Example 122, ETHYL 4-[N-(1'-AMINOCITRACONAMIDO)]-2-(2'-THIENYL)-PYRIMIDINE-5-CARBOXYLATE] | 20 |  |
| CCOC(=O)c1cnc(-c2cccs2)nc1N(C)N1C(=O)C=C(C)C1=O [Example 123, ETHYL 4-[N-(1'-AMINOCITRACONAMIDO)-N-METHYL]-2-(2'-THIENYL)-PYRIMIDINE-5-CARBOXYLATE] | 800 |  |
| CCOC(=O)c1cnc(Cc2ccc(Cl)c(Cl)c2)nc1NN1C(=O)C=C(C)C1=O [Example 124, ETHYL 4-[N-(1'-AMINOCITRACONAMIDO)]-2-(3',4'-DICHLOROBENZYL)-PYRIMIDINE-5-CARBOXYLATE] | 4000 |  |
| CCc1nc(N(C)N2C(=O)C=C(C)C2=O)ncc1-c1nc(C)co1 [Example 126, 2-[N-(1'-AMINOCITRACONAMIDO)-N-METHYL]-4-ETHYL-5-[2"-(4"-METHYL)OXAZOLYL]PYRIMIDINE] | 1000 |  |
| CC1=CC(=O)N(N(C)c2ncc(-c3nc(C)co3)c(-c3cccs3)n2)C1=O [Example 127, 2-[N-(1'-AMINOCITRACONAMIDO)-N-METHYL]-5-[2"-(4"-METHYL)OXAZOLYL]-4-(2'"-THIENYL)PYRIMIDINE] | 750 |  |
| CCc1nc(N(C)N2C(=O)C=C(C)C2=O)ncc1-c1noc(C)n1 [Example 129, 2-[N-(1'-AMINOCITRACONAMIDO)-N-METHYL]-4-ETHYL-5-[5"-METHYL-1",2",4"-OXADIAZOLYL]PYRIMIDINE] | 1420 |  |
| CC1=CC(=O)N(Nc2nc(-c3cccs3)ncc2-c2cc(C)no2)C1=O [Example 132, 4-[N-(1'-AMINOCITRACONAMIDO)]-5-(3"-METHYLISOXAZOL-5'-YL)-2-(2'"-THIENYL)PYRIMIDINE] | 190 |  |
| CC1=CC(=O)N(Nc2nc(-c3cccs3)ncc2-c2nc(C)co2)C1=O [Example 137, 4-[N-(1'-AMINOCITRACONAMIDO)]-5-(4"-METHYLOXAZOL-2-YL)-2-(2'"-THIENYL)PYRIMIDINE] | 310 |  |
| CC1=CC(=O)N(Nc2nc(-c3cccs3)ncc2C2=NCCO2)C1=O [Example 140, 4-[N-(1'-AMINOCIACONAMIDO)]-5-(4",5"-DIHYDRO-2"-OXAZOLYL)-2-(2'"-THIENYL)PYRIMIDINE] | 200 |  |
| CC1=CC(=O)N(Nc2nc(-c3cccs3)ncc2-c2nnc(C)o2)C1=O [Example 142, 4-[N-(1'-AMINOCITRACONAMIDO)]-5-(5"-METHYL-1",3",4"-OXADIAZOL-2"-YL)-2-(2'"-THIENYL)PYRIMIDINE] | 250 |  |
| CC1=CC(=O)N(Nc2nc(-c3cccs3)ncc2C#N)C1=O [Example 143, 4-[N-(1'-AMINOCITRACONAMIDO)]-5-CYANO-2-(2'-THIENYL)PYRIMIDINE] | 5150 |  |
| O=P1(N(CCCl)CCCl)NCCCO1 (stereo not shown) [cyclophosphamide] |  | activity in delayed-type hypersensitivity (oxazolone) model [2]: active; activity in popliteal lymph node (graft vs. host) model [3]: active |
